Patent publication US9885060B2, “Alkene production” (Evonik Degussa GmbH, priority 2015, dated 2018)

System: OleT
Experiment: Inhibitory effect of gluconic acid on OleT productivity
Type: biochemical
Details: 10 mM gluconic acid
Protocol: After 24 h reaction time, product concentrations of 1.16 mM (0.27 g L-1) 1-heptadecene and 1 mM (0.21 g L-1) 1-pentadecene were obtained but could not be further enhanced. […] Compared to a previously published whole cell reaction system, this FDH-driven system allows 6 times higher product titer and a 21 times higher volumetric productivity with 42.5 mg L-1 h-1 of α-olefin after 8 h reaction time vs: 98 mg L-1 in 48 h) (Table 2).

O=C(O)[C@H](O)[C@@H](O)[C@H](O)[C@H](O)CO [gluconic acid]
reduction of OleT productivity: 28%
